Experimental data published in patent US20250154135A1, “M-CHOLINE RECEPTOR AGONIST COMPOUND, PREPARATION METHOD THEREFOR AND USE THEREOF” (NANJING GRITPHARMA CO., LTD., priority 2022, published 2025).

Key:
rabbit pupil [1] = assay: Miosis effect of 0.915% compound solutions in rabbits (Test Example 4); type: in vivo; settings: at half of the concentration of the pilocarpine hydrochloride
Method: Each rabbit in each group was subjected to single eye drop administration in the left eye, with an administration volume of 100 μL. The pupil and iris diameters of the left eye of the rabbits were measured at time points of −0.5 h (i.e., half an hour before administration), 0.5 h, 3 h, and 4 h relative to administration (observation time points were extended if necessary), with the measurement performed 5 times for each rabbit at each time point. The entire measurement process was completed by the same person.
• Reagents: normal saline (specification: 500 mL: 4.5 g), purchased from Jiangxi Kelun Pharmaceutical Co., Ltd.; • compound 1 and compound 2 (from Nanjing Jiqun Pharmaceutical Technology Co., Ltd.); • 1) a compound 1 solution at a concentration of 0.915% prepared using normal saline; • 2) a compound 2 solution at a concentration of 0.915% prepared using normal saline.
The miosis effects of the 0.915% compound 1 solution and the 0.915% compound 2 solution were determined using the method in Test Example 2, and the determination results are shown in Tables 4-1 and 4-2 below.

[2] = Stability tests on compound starting materials (HPLC related substances); type: physicochemical; settings: for (Z-A) impurity A isopilocarpine / (Z-B) impurity B pilocarpic acid / (Z-C) impurity C isopilocarpic acid / Maximum single impurity / Total impurity: starting material
Method: Samples: compound 1, compound 2 and pilocarpine hydrochloride starting material solid particles.
High-temperature test: 1 g of each of compound 1, compound 2 and pilocarpine hydrochloride starting materials were taken and placed in an open container inside a constant temperature device at 40° C.; samples were taken at time points of day 0 and day 5, and then tested according to the key stability examination items. The stability of the active pharmaceutical ingredient itself and the trend of changes in stability under the conditions of influencing factor tests were observed.
Strong light irradiation test: 1 g of each of compound 1, compound 2 and pilocarpine hydrochloride starting materials were taken and placed in an open container inside a light irradiation box, with the illumination set at 4500 lx±500 lx; samples were taken at time points of day 0 and day 5, and then tested according to the key stability examination items.
High-humidity test: 1 g of each of compound 1, compound 2 and pilocarpine hydrochloride starting materials was taken and placed in an open container inside a constant humidity closed container at 25° C. and with a relative humidity of 75%±5%; samples were taken at day 0 and day 5, and then tested according to the requirements of the key stability examination items.
According to the records in the European Pharmacopoeia (EP), the key related substances to be examined for pilocarpine include: impurity A isopilocarpine (Z-A), impurity B pilocarpic acid (Z-B), and impurity C isopilocarpic acid (Z-C). The samples taken at different time points from the above high-temperature test, strong light irradiation test and high-humidity test were separately tested using high-performance liquid chromatography to observe the trend of changes in stability under the conditions of the influencing factor tests.
The related substances were determined according to the high-performance liquid chromatography (General Chapter 0512, Chinese Pharmacopoeia, Volume IV, 2020 Edition).
Test sample solution: an appropriate amount of each test sample was precisely weighed, dissolved in water, and diluted to prepare a solution containing 1 mg of test sample per 1 mL.
Chromatographic conditions: octadecyl bonded silica gel was used as a filler [kromasil 100-5-C18 column (4.0 mm×[…]) or a chromatographic column with equivalent performance], 0.679 g/L tetrabutylammonium dihydrogen phosphate-methanol-acetonitrile (885:55:60) (adjusted to pH 7.7 with dilute aqueous ammonia) was used as mobile phase A, and acetonitrile-water (80:20) was used as mobile phase B; gradient elution was performed according to Table 6-1, with a column temperature of 30° C., a flow rate of 1.0 mL/min, a detection wavelength of 220 nm, and a sample injection volume of 20 μL.

rabbit pupil [3] = assay: Rabbit pupil constriction after single eye drop (Test Example 1); type: in vivo, New Zealand rabbit; settings: rabbits, Test Example 1 solutions
Method: Except for group 5), the eye drop solutions of groups 1) to 12) described above contained an equimolar concentration of pilocarpine. The molar concentration of pilocarpine in the eye drop solution of group 5) was half of the molar concentration of pilocarpine in the solutions of the other 11 groups.
The effects of the eye drop solutions of groups 1) to 12) prepared above on rabbit pupil constriction and irritation were tested separately.
• Species and strain: New Zealand rabbit • Grade: normal • Source: Qinglongshan Animal Breeding Farm, Jiangning District, Nanjing • Production license No.: SCXK (Su) 2016-0008 • Animal age: about 110 days old at the time of administration • Animal body weight: about 2.5-3.5 kg at the time of administration • Animal sex: all male • Feed: rabbit pellet feed • Housing conditions: air-conditioned room, with a temperature of 18-26° C. and a relative humidity of 40%-80%.
• Digital vernier caliper: specification: 0-150 mm; measurement accuracy: 0.01 mm; manufacturer: Guilin Guanglu Measuring Instrument Co., Ltd.
Each rabbit was subjected to eye drop administration in the left eye (using a pipette), with an administration volume of 100 μL.
• Number of animals: for JQ series compounds, 6 rabbits per compound; for compounds 1, 2 and 4, 5 rabbits per compound. • Administration schedule: single administration. Measurement indicators and time points: • for JQ series compounds, the pupil diameter of the left eye of the rabbits was measured at time points of −0.5 h (i.e., half an hour before administration), 5 min, 10 min, 15 min, 0.5 h, 3 h and 4 h relative to administration, with the measurement repeated 3 times for each rabbit at each time point (measurement time points were extended if necessary); • for compounds 1, 2 and 4, the pupil diameter of the left eye of the rabbits was measured at time points of 3 h and 4 h relative to administration, with the measurement repeated 3 times for each rabbit at each time point (measurement time points were extended if necessary).
Percentage change in pupil diameter (%) after administration=(pupil diameter after administration−pupil diameter before administration)/pupil diameter before administration×100%
The measurement result for each rabbit at each time point was represented by the average value of three measurements.

[4] = 40° C. and high light irradiation

| Compound | miosis effect compared to pilocarpine hydrochloride (rabbit pupil [1]) | impurity increasing rate compared to pilocarpine hydrochloride starting material [2, 4] | impurity increasing rate compared to pilocarpine hydrochloride starting material ([2]; 5 days, high humidity (RH 75%)) | (Z-A) impurity A isopilocarpine ([2]; 40° C.-5 days) [%] | (Z-B) impurity B pilocarpic acid ([2]; 40° C.-5 days) [%] | (Z-C) impurity C isopilocarpic acid ([2]; 40° C.-5 days) [%] | Maximum single impurity ([2]; 40° C.-5 days) [%] | Total impurity ([2]; 40° C.-5 days) [%] | (Z-A) impurity A isopilocarpine ([2]; Day 0) [%] | (Z-B) impurity B pilocarpic acid ([2]; Day 0) [%] | (Z-C) impurity C isopilocarpic acid ([2]; Day 0) [%] | Maximum single impurity ([2]; Day 0) [%] | Total impurity ([2]; Day 0) [%] | (Z-A) impurity A isopilocarpine ([2]; Light-5 days (4500 lx)) [%] | (Z-B) impurity B pilocarpic acid ([2]; Light-5 days (4500 lx)) [%] | (Z-C) impurity C isopilocarpic acid ([2]; Light-5 days (4500 lx)) [%] | Maximum single impurity ([2]; Light-5 days (4500 lx)) [%] | Total impurity ([2]; Light-5 days (4500 lx)) [%] | (Z-A) impurity A isopilocarpine ([2]; RH 75%-5 days, 25° C.) [%] | (Z-B) impurity B pilocarpic acid ([2]; RH 75%-5 days, 25° C.) [%] | other results |
| --- | --- | --- | --- | --- | --- | --- | --- | --- | --- | --- | --- | --- | --- | --- | --- | --- | --- | --- | --- | --- | --- |
| CC[C@@H]1C(=O)OC[C@@H]1Cc1cncn1C [Compound 1] | comparable to the effect of pilocarpine hydrochloride | comparable to those of the pilocarpine hydrochloride starting material | significantly slower than those of the pilocarpine hydrochloride | 0.365 | 0 | 0 | 0 | 0.365 | 0.328 | 0 | 0 | 0 | 0.328 | 0.329 | 0 | 0 | 0 | 0.329 | 0.310 | 0 | (Z-C) impurity C isopilocarpic acid ([2]; RH 75%-5 days, 25° C.): 0%; Maximum single impurity ([2]; RH 75%-5 days, 25° C.): 0%; Total impurity ([2]; RH 75%-5 days, 25° C.): 0.331%; pupil constriction (miosis) effect at 3 h after administration (rabbit pupil [3]): still showed miosis effect |
| CC[C@@H]1C(=O)OC[C@@H]1Cc1cncn1C [Compound 2] | comparable to the effect of pilocarpine hydrochloride | comparable to those of the pilocarpine hydrochloride starting material | significantly slower than those of the pilocarpine hydrochloride | 0.338 | 0.072 | 0 | 0 | 0.353 | 0.307 | 0 | 0 | 0 | 0.307 | 0.333 | 0.046 | 0 | 0 | 0.339 | 0.311 | 0.116 | (Z-C) impurity C isopilocarpic acid ([2]; RH 75%-5 days, 25° C.): 0%; Maximum single impurity ([2]; RH 75%-5 days, 25° C.): 0%; Total impurity ([2]; RH 75%-5 days, 25° C.): 0.427%; pupil constriction (miosis) effect at 3 h after administration (rabbit pupil [3]): still showed miosis effect |
